Measured values reported in patent publication US7408066B2, “Carbon-linked substituted piperidines and derivatives thereof useful as histamine H3 antagonists” (Schering Corproation, priority 2005, dated 2008).

How the values were obtained:
[1] = target: T1, H3 receptors (guinea pig brain) (Cavia porcellus, UniProt Q9JI35); assay: H3-receptor binding assay, guinea pig brain membranes
T1 construct: The brain tissue was homogenized with a solution of 50 mM Tris, pH 7.5; from tissue; host or cells: guinea pig brain membranes
T1 sequence (Q9JI35 whole entry): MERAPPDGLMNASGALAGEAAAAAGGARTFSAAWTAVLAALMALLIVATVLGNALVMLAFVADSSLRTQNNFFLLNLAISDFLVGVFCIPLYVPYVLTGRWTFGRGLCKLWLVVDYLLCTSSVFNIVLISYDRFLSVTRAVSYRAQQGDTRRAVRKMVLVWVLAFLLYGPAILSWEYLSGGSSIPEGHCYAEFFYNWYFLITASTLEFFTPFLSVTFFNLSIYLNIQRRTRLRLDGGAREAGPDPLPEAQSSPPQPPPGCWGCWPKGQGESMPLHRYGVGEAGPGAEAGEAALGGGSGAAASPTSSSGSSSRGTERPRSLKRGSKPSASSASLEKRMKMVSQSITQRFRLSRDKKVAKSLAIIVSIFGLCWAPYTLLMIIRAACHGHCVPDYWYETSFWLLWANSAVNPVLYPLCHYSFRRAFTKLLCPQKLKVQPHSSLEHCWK
Protocol: (§1) General Procedure for H3-Receptor Binding Assay
(§2) The source of the H3 receptors in this experiment was guinea pig brain. Alternatively, the source of H3 receptors was recombinant human receptor, expressed in HEK-293 (human embryonic kidney) cells.
The animals weighed 400-600 g. The brain tissue was homogenized with a solution of 50 mM Tris, pH 7.5. The final concentration of tissue in the homogenization buffer was 10% w/v. The homogenates were centrifuged at 1,000×g for 10 min. in order to remove clumps of tissue and debris. The resulting supernatants were then centrifuged at 50,000×g for 20 min. in order to sediment the membranes, which were next washed three times in homogenization buffer (50,000×g for 20 min. each). The membranes were frozen and stored at −70° C. until needed.
All compounds to be tested were dissolved in DMSO and then diluted into the binding buffer (50 mM Tris, pH 7.5) such that the final concentration was 2 μg/ml with 0.1% DMSO. Membranes were then added (400 μg of protein, 5 μg in the case of recombinant human receptor) to the reaction tubes. […] Bound ligand was separated from unbound ligand by filtration, and the amount of radioactive ligand bound to the membranes was quantitated by liquid scintillation spectrometry. […]

[2] = target: T2, H3 receptors (recombinant human receptor, expressed in HEK-293 cells) (Homo sapiens, UniProt Q9Y5N1); assay: H3-receptor binding assay, recombinant human receptor
T2 construct: expressed in transfected cells; host or cells: HEK-293 (human embryonic kidney) cells
T2 sequence (Q9Y5N1 whole entry): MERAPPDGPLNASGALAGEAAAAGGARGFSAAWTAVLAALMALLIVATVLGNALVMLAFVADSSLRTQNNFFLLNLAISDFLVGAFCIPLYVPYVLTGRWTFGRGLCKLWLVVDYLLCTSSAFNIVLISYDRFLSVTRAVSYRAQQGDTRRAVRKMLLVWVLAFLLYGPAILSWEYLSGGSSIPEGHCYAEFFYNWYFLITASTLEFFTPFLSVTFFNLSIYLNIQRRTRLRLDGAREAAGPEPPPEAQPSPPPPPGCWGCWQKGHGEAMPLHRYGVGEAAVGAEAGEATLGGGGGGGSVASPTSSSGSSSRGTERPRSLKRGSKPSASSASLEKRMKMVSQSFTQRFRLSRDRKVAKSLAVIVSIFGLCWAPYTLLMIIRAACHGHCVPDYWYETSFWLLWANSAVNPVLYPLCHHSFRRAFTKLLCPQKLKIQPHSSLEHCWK
Protocol: as §1, §2
All compounds to be tested were dissolved in DMSO and then diluted into the binding buffer (50 mM Tris, pH 7.5) such that the final concentration was 2 μg/ml with 0.1% DMSO. Membranes were then added (400 μg of protein, 5 μg in the case of recombinant human receptor) to the reaction tubes. The reaction was started by the addition of 3 nM [^3H]R-α-methyl histamine (8.8 Ci/mmol) or 3 nM [^3H]N^α-methyl histamine (80 Ci/mmol) and continued under incubation at 30° C. for 30 min. Bound ligand was separated from unbound ligand by filtration, and the amount of radioactive ligand bound to the membranes was quantitated by liquid scintillation spectrometry. All incubations were performed in duplicate and the standard error was always less than 10%. Compounds that inhibited more than 70% of the specific binding of radioactive ligand to the receptor were serially diluted to determine a Ki (nM).

SMILES | Ki [1] [nM] | Ki [2] [nM]
CS(=O)(=O)NC(c1ccccn1)C1CCN(C(=O)C2CCN(Cc3ccnc(N)c3)CC2)CC1 (centres unmarked) [Example 92] | 0.35 | 
CNC(=O)[C@H]1C[C@@]1(c1ccc(Cl)cc1)C1CCN(C(=O)C2CCN(Cc3ccnc(N)c3)CC2)CC1 [Example 88] |  | 1.1
